Test results: paper PMC12250347, “Calcium-dependent pathway as a primary cause of hypoxic RGC damage in monkey retinal explants” (PLOS One, 2025)
Entries after “also recorded” stand apart in the source; their conditions may differ.

How the values were obtained:
[1] = tested on: calpain 1 activation and proteolysis of α-spectrin; experiment: Immunoblotting of retinal explants under hypoxia/reoxygenation; assay type: cell-based, rhesus macaques (Macaca mulatta); conditions: H16R8; BAPTA 3 or 10 mM, BAPTA-AM 0.1 or 0.5 mM
Method: (§1) Retina explant culture was performed as described in our previous report, except for the induction of hypoxia. Briefly, a hypoxic chamber (Coy Laboratory Products, Grass Lake, MI, USA) was controlled at 0.3% oxygen with a 95% N2/5% CO2 gas mixture. Retinas were dissected into fan-shaped explants with 6 or 7 petals (> 5 mm) in HBSS. Each explant was placed with the RGC side facing up on a Millicell organotypic standing insert (0.4 μm, 30 mm diameter, MilliporeSigma) in six-well, culture plates. They were cultured for 2 hr at 37°C under 95% N2/5% CO2 in Neurobasal-A medium supplemented with B27, N2 supplements, 2 mM L-glutamine (Thermo Fisher Scientific, Waltham, MA, USA), and 100 μg/mL primocin (Invivogen, San Diego, CA, USA). Retinal explants were then chamber-cultured under hypoxic conditions for 16 hr in a culture medium with 0.5 mM glucose, under 0.3% oxygen. The retinas were then re-oxygenated for 8 hr in a culture medium with 5.5 mM glucose. Normoxic control retinas were cultured for 24 hr in a culture medium with 5.5 mM glucose. When present, calpain inhibitors (SNJ-1945, PD-151746, C2I, and ABT-957) and cathepsin inhibitors (Odanacatib and SID26681509) in 0.1% DMSO were used at the final concentration of 10 or 100 μM in the medium. BAPTA (Thermo Fisher Scientific) and BAPTA-AM (Thermo Fisher Scientific) were also used at a final concentration of 3 or 10 mM or a final concentration of 100 or 500 μM, respectively.
(§2) All inhibitors and BAPTA were treated simultaneously with hypoxia induction, and BAPTA-AM treatment was 2 hr before hypoxia induction.
(§3) Each retinal explant was sonicated in RIPA Lysis and Extraction Buffer (Thermo Fisher Scientific), with protease inhibitors cocktail (Complete Mini-EDTA-free; MilliporeSigma). Protein concentrations in lysates were measured by BCA assay (Pierce BCA Protein Assay Kit, Thermo Fisher Scientific) using bovine serum albumin as a standard. For immunoblotting, 5 μg of each sample was loaded and run on 4% to 12% gradient or 10% SDS-PAGE gels (NuPAGE Bis-Tris Protein Gels, Thermo Fisher Scientific) with 2-(N-morpholino)ethanesulfonic acid buffer or 3-(N-morpholino) propanesulfonic acid buffer (Thermo Fisher Scientific). Proteins were then electrotransferred to a polyvinylidene fluoride membrane (MilliporeSigma) at 100 V for 60 min or 1.5 hr. Membranes were then blocked with 5% skim milk in Tris-buffer saline (Bio-Rad Laboratories, Hercules, CA, USA) containing 0.05% Tween 20. Each membrane was probed with primary antibodies against α-spectrin (1:2000 dilution, Enzo Life Sciences, Farmingdale, NY, USA), SBDP150 (1:1000 dilution, Senju Pharmaceutical), calpain 1 (1:1000 dilution, Thermo Fisher Scientific), calpain 2 (1:500, GeneTex, Irvine, CA, USA), cathepsin K (1:500 dilution, Abcam), and β-actin (1:1000 dilution, Merck). For calpain 1, immunoreactivity was visualized using a secondary antibody conjugated to alkaline phosphatase and the AP Conjugate Substrate Kit (Bio-Rad Laboratories). For other proteins, immunoreactivities were visualized using secondary antibodies conjugated with rabbit (Santa Cruz Biotechnology) or mouse horseradish peroxidase enzyme (Cytiva, Wilmington, DE, USA) and ECL Plus detection reagents (Cytiva). Images of the membranes were captured with FluorChem FC2 imager (Cell Biosciences, Santa Clara, CA, USA). The conversion of pro-cathepsin K (38 kDa) to its mature form (27 kDa) was used as an indicator of cathepsin K activation.

[2] = tested on: calpain-specific SBDP150 in nerve fiber layer (NFL); experiment: SBDP150 immunostaining of flat-mounted retinal explants under hypoxia/reoxygenation; assay type: cell-based, rhesus macaques (Macaca mulatta); conditions: H16R8
Method: as §1, §2
Formalin-fixed retinal explants were incubated overnight at −30°C in 1: 4 dilutions of DMSO-ethanol to promote antibody penetration. The explants underwent two cycles of freezing and thawing between −80°C and room temperature in 100% ethanol for 20 min. The retinas were then rehydrated in 70%, 50%, and 15% ethanol and PBS for 20 min each, followed by overnight incubation with 0.2% Triton X-100. The samples were stained with antibodies specific for calpain-specific SBDP150 [8] (1:100 dilution, Senju Pharmaceutical) and β-III tubulin (a neuron marker, 1:500 dilution, Merck). The nerve fiber layer (NFL) was observed approximately 5 mm from the tips of the fan-shaped retinal flat mounts. Confocal images were taken using a model LSM 880 spectral confocal system with a 20x 0.8 NA lens (Carl Zeiss, Oberkochen, Germany).

[3] = tested on: RGCs in monkey retinal explants; experiment: PI staining and RGC counting in retinal explants under hypoxia/reoxygenation; assay type: cell-based, rhesus macaques (Macaca mulatta); conditions: H16R8; calcium chelator at higher concentration (BAPTA 10 mM; BAPTA-AM 0.5 mM, 2 hr before hypoxia)
Text: Globes were obtained from rhesus macaques (Macaca mulatta) at 1–7 years of age from the Oregon National Primate Research Center (Beaverton, OR, USA). The wide range of ages was unavoidable because they became available from experiments that were unrelated to the present studies. These eyes were acceptable for the purpose of our experiments. The eyes were dissected within 5 hr after death, and excised eyes were soaked in cold Hanks’ balanced salt solution (HBSS; Corning, NY, USA) or Dulbecco’s phosphate-buffered saline (DPBS; Corning). Experimental animals were handled in accordance with the Research in Vision and Ophthalmology Statement for the Use of Animals in Ophthalmic and Vision Research and with the Guiding Principles in the Care and Use of Animals (Department of Health Education and Welfare Publication National Institutes of Health 80−23).
as §1, §2
To assess the disruption of membrane barrier function, propidium iodide (PI) was utilized. Following hypoxia/reoxygenation treatment, retinal explants were incubated for 20 min in a medium containing a final concentration of 2 μg/ml of PI. For quantitative analysis, the RGC marker, RNA-binding protein with multiple splicing (RBPMS) was used at a 1:100 dilution (PhosphoSolutions, Aurora, CO, USA). RBPMS-positive and PI-positive cells in the ganglion cell layer were counted in 2 images from 2 square areas (775 × 775 μm each) located 3–5 mm and 5–7 mm away from the tips of the fan-shaped retinal flat mounts. The percentage of PI-positive RGCs was calculated as [the number of PI and RBPMS-double positive cells/the number of all RBPMS-positive cells] × 100.

[4] = target: T1, human erythrocyte calpain 1 (Homo sapiens, UniProt P07384); experiment: Calpain-Glo Protease Assay; assay type: biochemical; conditions: 5 mM CaCl2, 10 min, room temperature; mean of two experiments
T1 construct: human erythrocyte calpain 1 (MilliporeSigma); purchased MilliporeSigma; host or cells: human erythrocytes
T1 sequence (P07384 1-714): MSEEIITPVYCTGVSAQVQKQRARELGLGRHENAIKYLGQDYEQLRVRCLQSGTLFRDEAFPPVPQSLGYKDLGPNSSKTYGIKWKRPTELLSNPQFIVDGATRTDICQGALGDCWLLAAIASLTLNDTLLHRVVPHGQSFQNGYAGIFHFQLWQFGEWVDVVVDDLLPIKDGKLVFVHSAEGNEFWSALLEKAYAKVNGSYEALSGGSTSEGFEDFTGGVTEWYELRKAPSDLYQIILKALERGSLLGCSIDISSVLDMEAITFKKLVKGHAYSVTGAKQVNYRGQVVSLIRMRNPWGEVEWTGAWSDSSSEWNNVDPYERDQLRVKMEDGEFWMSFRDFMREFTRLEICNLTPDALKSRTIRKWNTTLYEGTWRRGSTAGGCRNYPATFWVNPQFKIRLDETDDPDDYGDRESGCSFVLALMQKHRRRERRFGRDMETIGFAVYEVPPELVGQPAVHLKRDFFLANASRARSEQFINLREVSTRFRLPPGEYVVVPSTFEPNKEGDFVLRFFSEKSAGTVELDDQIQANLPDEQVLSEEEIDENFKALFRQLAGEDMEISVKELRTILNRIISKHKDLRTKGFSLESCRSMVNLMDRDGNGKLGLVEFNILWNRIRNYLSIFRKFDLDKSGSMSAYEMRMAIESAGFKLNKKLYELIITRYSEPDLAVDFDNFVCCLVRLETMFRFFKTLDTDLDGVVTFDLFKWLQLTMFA
T1 sequence (P04632 1-268 partner): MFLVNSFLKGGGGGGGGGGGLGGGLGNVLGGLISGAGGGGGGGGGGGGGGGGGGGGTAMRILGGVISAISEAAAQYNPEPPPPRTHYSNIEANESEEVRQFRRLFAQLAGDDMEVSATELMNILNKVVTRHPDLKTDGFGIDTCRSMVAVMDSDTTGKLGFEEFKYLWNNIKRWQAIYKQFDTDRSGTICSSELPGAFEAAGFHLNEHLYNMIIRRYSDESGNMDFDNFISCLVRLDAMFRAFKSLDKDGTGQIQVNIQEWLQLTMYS
Method: (§4) For measurement of inhibitory activities against calpains in vitro, Calpain-Glo Protease Assay (Promega; Madison, WI, USA) was performed using human erythrocyte calpain 1 (MilliporeSigma) and purified porcine calpain 2. Briefly, 24 µL of each calpain diluted with 20 mM Tris-HCl (pH 7.4), 1 µL of each inhibitor, and 25 µL of reaction buffer including CaCl2 in a 96-well plate was incubated for 10 min at room temperature. The final concentration of CaCl2 in the reaction solution was 5 mM. The luminescence was measured using a microplate reader (GloMax Discover System; Promega). IC50 values from two independent experiments were averaged.

[5] = tested on: purified porcine calpain 2; experiment: Calpain-Glo Protease Assay; assay type: biochemical; conditions: 5 mM CaCl2, 10 min, room temperature; mean of two experiments
Text: The porcine kidney was obtained from DART Co., Ltd. as part of a program aimed at the effective utilization of livestock by-products in Hokkaido, Japan. The procurement process followed ethical guidelines from Livestock Industry Bureau MAFF-J (ministry of agriculture, forestry and fisheries of Japan) for farm animal use, ensuring compliance with relevant regulations. Two porcine kidneys were rapidly frozen after removal, trimmed free of excess tissue or renal pelvis, and cut into small pieces (approximately 2 × 2 cm) before they thawed. About 250 g of these pieces were homogenized in 1200 mL of ice-cold 20 mM Tris-HCl (pH 8.0) with 5 mM ethylenediaminetetraacetic acid (EDTA), 0.1% 2-mercaptoethanol (2-ME), 0.1 mg/mL Pefabloc SC (MilliporeSigma, Burlington, MA, USA), 40 µg/mL bestatin, and 4 µg/mL pepstatin in a Waring blender HGBSS (Waring; Stamford, CT, USA) at 19,000 rpm using several bursts of 10 sec each with 20 sec cooling periods between each burst. The homogenate was centrifuged at 25,000 × g for 15 min at 4°C, and the supernatant was filtered through glass wool and a 5 µm filter (Merck) to remove floating lipids. The purification procedure was performed according to the method of Thompson and Goll with some minor modifications: the DEAE-cellulose and the DEAE-TSK ToyoPearl 650S columns were substituted with DEAE sepharose fast flow (Merck) and TSKgel DEAE-5PW (30) (Tosoh; Tokyo, Japan) columns, respectively. After purification, calpain-2 was dialyzed, and glycerol was added for freeze-thaw protection. The final buffer formulation was 20 mM imidazole, 5 mM 2-ME, 1 mM EDTA, 1 mM EGTA, and 20% glycerol.
as §4

[6] = tested on: calpains 1 and 2 in monkey retinal lysate; experiment: In vitro inhibitory assay of calpains from retinal lysate (CaCl2, immunoblotting); assay type: biochemical; conditions: non-cultured monkey retina lysate, 10 mM CaCl2, 2 hr, 37°C; inhibitor at 1, 10 and 100 µM
Method: as §3
To confirm the isozyme specificities of calpain inhibitors in vitro, non-cultured monkey retinas were sonicated in a buffer containing 20 mM Tris (pH 7.5), 5 mM EGTA, 5 mM EDTA, 2 mM DTE. […]

Row | IC50 [4] [nM] | IC50 [5] [nM] | Compound | Effect on activation of calpain 1 and proteolysis of α-spectrin (immunoblot) [1] | Effect on SBDP150 staining in NFL ([2]; BAPTA at lower concentration (3 mM)) | Effect on RGC damage (PI-positive RGCs) [3] | Effect on calcium-induced activation (autolysis) of calpains 1 and 2 and SBDP150 in retinal lysate [6] | Effect on SBDP150 staining in NFL ([2]; BAPTA-AM 500 μM)
1 | – | – | O=C(O)CN(CC(=O)O)c1ccccc1OCCOc1ccccc1N(CC(=O)O)CC(=O)O [BAPTA] | mitigated; also recorded: inhibited the autolytic activation of calpain 1 | reduced SBDP150 staining | almost completely inhibited | – | –
2 | 150 | 249 | O=C(O)/C(S)=C/c1c[nH]c2ccc(F)cc12 [PD-151746] | – | – | – | also inhibited calpain activation, but not as strongly as SNJ-1945 and ABT-957 | –
3 | – | – | CC(=O)OCOC(=O)CN(CC(=O)OCOC(C)=O)c1ccccc1OCCOc1ccccc1N(CC(=O)OCOC(C)=O)CC(=O)OCOC(C)=O [BAPTA-AM] | mitigated | – | partial | – | inhibited the increase in SBDP150 staining
4 | 403 | 429 | O=C(NC1CC1)C(=O)C(Cc1ccccc1)NC(=O)[C@H]1CCC(=O)N1Cc1ccccc1 (stereo partly drawn) [ABT-957] | – | – | – | inhibited the activation of both calpain 1 and calpain 2 in a dose-dependent manner | –
